Data: the RepoRT retention time repository (doi:10.1016/j.chroma.2015.03.063)

Assay: Agilent ZORBAX Eclipse Plus C18, 100 × 2.1 mm, 1.8 µm, 25 °C, 0.3 mL/min, estimated dead time 0.73 min; A: water + 0.1% acetic acid; B: methanol; gradient (min/%B) 0/5 6/20 13/35 18/50 24/65 30/90 40/90
Settings: stereoisomer not certain

SMILES	LC retention time [min]
Nc1ncnc2c1ncn2C1OC(CO)C(O)C1O (stereo unspecified)	5.25
C[N+](C)(C)CCO	2.08
OCC1OC(OCC2OC(OC3(CO)OC(CO)C(O)C3O)C(O)C(O)C2O)C(O)C(O)C1O (stereo unspecified)	2.54
O=c1cc(-c2ccc(O)cc2)oc2cc(OC3OC(CO)C(O)C(O)C3O)cc(O)c12 (stereo unspecified)	18.2
COc1ccc(-c2coc3cc(OC4OC(CO)C(O)C(O)C4O)ccc3c2=O)cc1O (stereo unspecified)	17.6
COc1ccc(-c2coc3cc(OC4OC(CO)C(O)C(O)C4O)ccc3c2=O)cc1 (stereo unspecified)	21.6

Next, values leading:

LC retention time [min]	SMILES
7.74	O=C(O)c1ccc(O)c(O)c1
11.5	COc1cc(C=CC(=O)O)ccc1O
4.31	NC(Cc1ccc(O)cc1)C(=O)O (stereo unspecified)
7.22	NC(Cc1ccccc1)C(=O)O (stereo unspecified)
9.7	NC(Cc1c[nH]c2ccccc12)C(=O)O (stereo unspecified)
